≈ marks a conversion by molar mass, not a printed value. Where two headings read alike, the source gives them in different places.
Assays:
[1] = test system: HCT116 MTAP-deleted cell lines; test: Cell viability assay (CellTiter-Glo, 7 days), HCT116 MTAP-deleted; format: cell-based; conditions: for Selectivity: HCT116 WT CC50 versus HCT116 MTAP^del CC50; for plasma-adjusted CC50 (paCC50): paCC50 = CC50-HCT116-MTAP^del * (% free CCM/% free human plasma); for CC50: Homo sapiens, HCT116 MTAP-deleted
Outline: (§1)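 Dose-response, PRMT5 inhibitors from DMSO serial dilution, pre-spotted; cells seeded onto compound plates. 7 d, 37 °C/5% CO2/90% RH. Readout: CTG luminescence → CC50.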

[2] = Cell viability assay (CellTiter-Glo, 7 days), HCT116 WT; format: cell-based; conditions: human, HCT116 WT cells, 7 days of treatment, CTG
Outline: as §1

[3] = Pharmacokinetics in cassette in male Sprague-Dawley rats for Kp measurement; format: in vivo; conditions: 1 mg/kg, intravenous
Experimental: E.1 Test Animal: Male Sprague-Dawley Rats (225-300 g) with Indwelling Bilateral Jugular Vain Cannula (JVC/JVC) or Single Jugular Vein Cannula (JVC)
E.2 Pharmaceutical Formulation and Administration
Test compound was dissolved in the vehicle of 10% DMSO, 10% ethanol, 40% polyethylene glycol 300, and 40% propylene glycol to get 1 mg/mL test compound solution. The compound was administered by intravenous administration at a dose of 1 mL/kg. Fasting was not required.
• Anticoagulant: K2EDTA • Volume: approximately 225 μL blood at each bleed • Jugula vein via syringe and needle or another method (non-terminal samples) or exsanguination (cardiac puncture) under isoflurane (or CO2 inhalation if isoflurane is unavailable) anesthesia (terminal time points). Blood samples were collected into K2EDTA tubes • Tissue collection and processing: following the terminal blood collection, the brain and CSF were collected from each animal.

[4] = MDR1/BCRP assay: permeability in cPgp-KO-MDCK-WT cells; format: in vitro ADME; conditions: dog, pH 7.4
Outline: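 Compounds at 1 μM were dosed apically or basolaterally on 5-day confluent cPgp-KO-MDCK monolayers, HBSS/HEPES/glucose pH 7.4 donor and receiver with 1% BSA, duplicate wells. Receiver samples at 2 h were analysed by LC-MS/MS to give A→B and B→A Papp plus % recovery; TEER confirmed integrity.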

[5] = PBS solubility (kinetic solubility from DMSO stocks); format: physicochemical; conditions: 22 °C, aqueous buffer, kinetic from dmso stock; 1x PBS pH 7.4, 1.0% DMSO, 24-hour incubation at ambient temperature
Outline: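 Kinetic solubility in 1× PBS pH 7.4 with 1.0% final DMSO, maximum theoretical concentration 100 μM from 10 mM stock. After 24 h at ambient temperature (20.8-24.0 °C) the samples were vacuum-filtered and filtrates quantified by nitrogen detection against a calibration curve. Values were background-corrected and reported in μM and μg/mL.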

[6] = HCT-116, * Calculated using Low throughput hEQDS
[7] = HCT-116, 168 h, 7 days of treatment, CTG, read-out: CC50-HCT116-MTAP^del
[8] = HCT-116, cell viability, class symbols, read-out: CC50
[9] = brain Kp = [brain]/[plasma], rat, read-out: Rat brain Kp
[10] = brain Kpu,u = Kp * (plasma free/rat brain free), read-out: Rat brain Kpu,u
[11] = HCT-116, cell viability assay, class symbols, read-out: CC50

Compound | Selectivity [1] | plasma-adjusted CC50 (paCC50) [1, 6] [nM] | CC50 [1, 7] [nM] | CC50 [1, 8] [nM] | CC50 at 7 days [2] [nM] | Kp [3, 9] | Kp [3, 10] | Papp A→B at 2 h, 1 µM [4] [×10⁻⁶ cm/s] | solubility at 24 h [5] [µM] | plasma-adjusted CC50 (paCC50) ([1]; HCT-116) [nM] | CC50 [1, 11] [nM]
C[C@H]1CN(C(=O)c2cc3c(cc2F)nc(N)c2cncn23)[C@H]2c3ccc(C(F)(F)F)cc3C[C@H]2O1 (single isomer, unassigned) [Ff-81] | 71 | 591 | 19 | < 100 | 1350 | 0.17 | 0.04 | 10.5 | 18.5 (≈ 8.98 µg/mL) | – | –
Nc1nc2cc(F)c(C(=O)N3CCO[C@@H]4Cc5cc(C(F)(F)F)ccc5[C@@H]43)cc2n2cncc12 (single isomer, unassigned) [Ff-82] | 77 | – | 27 | < 100 | 2070 | 0.15 | 0.02 | 8.8 | 17.9 (≈ 8.44 µg/mL) | 408 | –
C[C@H]1CN(C(=O)c2cc3c(cc2F)nc(N)c2cncn23)[C@H]2c3cc(F)c(C(F)F)cc3C[C@H]2O1 (single isomer, unassigned) [Ff-173] | 64 | – | 35 | < 100 | 2250 | 0.12 | 0.03 | 14.3 | 9.9 (≈ 4.81 µg/mL) | 1160 | –
C[C@@H]1CN(C(=O)c2cc3c(cc2F)nc(N)c2cncn23)[C@H]2c3ccc(OC(F)(F)F)cc3C[C@H]2O1 (single isomer, unassigned) [Ff-183] | 57 | – | 15 | < 100 | 853 | 0.41 | 0.06 | 10.3 | 1.6 (≈ 0.802 µg/mL) | 257 | –
C[C@@H]1CN(C(=O)c2cc3c(cc2F)nc(N)c2cncn23)[C@H]2c3cc(F)c(OC(F)(F)F)cc3C[C@H]2O1 (single isomer, unassigned) [Ff-197] | 47 | – | 15 | < 100 | 712 | 0.22 | 0.06 | 16 | < 1 | 217 | –
Nc1nc2cnc(C(=O)N3CC[C@H]4C[C@@H]3c3c(F)cc(C(F)(F)F)cc3O4)cc2n2cncc12 (single isomer, unassigned) [Ff-694] | 72 | – | 10 | – | 723 | 0.29 | – | 19.7 | 50.2 (≈ 23.7 µg/mL) | 120 | –
Nc1nc2cnc(C(=O)N3CCC[C@@H]4Oc5cc(C(F)(F)F)cc(F)c5[C@@H]43)cc2n2cncc12 (single isomer, unassigned) [Fg-53] | 84 | 139 | 6 | – | 503 | 0.29 | 0.05 | 16.6 | 19.9 (≈ 9.4 µg/mL) | – | < 100
Nc1nc2cc(F)c(C(=O)N3CCC[C@@H]4Oc5cc(C(F)(F)F)ccc5[C@@H]43)cc2n2cncc12 [Ff-104, (4-amino-7-fluoroimidazo[1,5-a]quinoxalin-8-yl)((4aS,9bS)-7-(trifluoromethyl)-3,4,4a,9b-tetrahydrobenzofuro[3,2-b]pyridin-1(2H)-yl)methanone] | 94 | 139 | 5 | < 100 | 470 | 0.39 | 0.07 | – | < 1 | – | –
Nc1nc2cnc(C(=O)N3CC4(CC4)C[C@@H]4Oc5cc(C(F)(F)F)ccc5[C@@H]43)cc2n2cncc12 [Ff-648, (4-aminoimidazo[1,5-a]pyrido[3,4-e]pyrazin-8-yl)((4aS,9bS)-7-(trifluoromethyl)-4a,9b-dihydro-2H-spiro[benzofuro[3,2-b]pyridine-3,1′-cyclopropan]-1(4H)-yl)methanone] | 72 | – | 9 | – | 650 | – | – | 10.9 | 5.1 (≈ 2.45 µg/mL) | 262 | < 100
Nc1nc2cnc(C(=O)N3CC[C@H]4C[C@@H]3c3ccc(C(F)(F)F)c(F)c3O4)cc2n2cncc12 [Ff-684, (4-aminoimidazo[1,5-a]pyrido[3,4-e]pyrazin-8-yl)((2S,6R)-10-fluoro-9-(trifluoromethyl)-3,4-dihydro-2H-2,6-methanobenzo[b][1,5]oxazocin-5(6H)-yl)methanone] | 93 | – | 14 | – | 1310 | – | – | 10.7 | 28.4 (≈ 13.4 µg/mL) | 465 | < 100
Nc1nc2cnc(C(=O)N3CC[C@H]4C[C@@H]3c3ccc(OC(F)(F)F)cc3O4)cc2n2cncc12 [Ff-685, (4-aminoimidazo[1,5-a]pyrido[3,4-e]pyrazin-8-yl)((2S,6R)-9-(trifluoromethoxy)-3,4-dihydro-2H-2,6-methanobenzo[b][1,5]oxazocin-5(6H)-yl)methanone] | 71 | – | 16 | – | 1130 | – | – | 11.2 | 16.1 (≈ 7.57 µg/mL) | 357 | < 100
[2H]C1([2H])CC[C@@H]2Oc3cc(C(F)(F)F)ccc3[C@@H]2N1C(=O)c1cc2c(cn1)nc(N)c1cncn12 [Fg-60, (4-aminoimidazo[1,5-a]pyrido[3,4-e]pyrazin-8-yl)((4aS,9bS)-7-(trifluoromethyl)-3,4,4a,9b-tetrahydrobenzofuro[3,2-b]pyridin-1(2H)-yl-2,2-d2)methanone] | 98 | – | 7 | – | 683 | – | – | 7 | – | – | < 100
